ChEMBL document CHEMBL4359841, “Late-Stage Functionalization of Platensimycin Leading to Multiple Analogues with Improved Antibacterial Activity in Vitro and in Vivo” (2019)
In brackets after ≈: the same amount, converted by molar mass. Activity calls are given as the source filed them. The rule behind the calls is not given here.

Assays:
Staphylococcus aureus [1] = assay: Inhibition of FabB/FabF in methicillin-resistant Staphylococcus aureus 3112 clinical isolate assessed as antibacterial activity after 16 hrs by agar dilution method
Staphylococcus aureus [2] = assay: Inhibition of FabB/FabF in methicillin-resistant Staphylococcus aureus 3090 clinical isolate assessed as antibacterial activity after 16 hrs by agar dilution method
Staphylococcus aureus [3] = assay: Inhibition of FabB/FabF in methicillin-resistant Staphylococcus aureus 3095 clinical isolate assessed as antibacterial activity after 16 hrs by agar dilution method
Staphylococcus aureus [4] = assay: Inhibition of FabB/FabF in methicillin-sensitive Staphylococcus aureus assessed as antibacterial activity after 16 hrs by agar dilution method
Staphylococcus aureus [5] = assay: Inhibition of FabB/FabF in methicillin-resistant Staphylococcus aureus 3056 clinical isolate assessed as antibacterial activity after 16 hrs by agar dilution method
Staphylococcus aureus [6] = assay: Antibacterial activity against methicillin-resistant Staphylococcus aureus infected in C57BL/6J mouse model of peritonitis assessed as mouse survival at 10 mg/kg, ip dosed at 1 hr and 5 hrs post infection and measured for 7 days relative to control; format: functional
Staphylococcus aureus [7] = assay: Inhibition of FabB/FabF in methicillin-resistant Staphylococcus aureus 3071 clinical isolate assessed as antibacterial activity after 16 hrs by agar dilution method
Staphylococcus aureus [8] = assay: Inhibition of FabB/FabF in methicillin-resistant Staphylococcus aureus 3108 clinical isolate assessed as antibacterial activity after 16 hrs by agar dilution method
Staphylococcus aureus [9] = assay: Inhibition of FabB/FabF in methicillin-resistant Staphylococcus aureus 3188 clinical isolate assessed as antibacterial activity after 16 hrs by agar dilution method
Staphylococcus aureus [10] = assay: Inhibition of FabB/FabF in methicillin-resistant Staphylococcus aureus 3094 clinical isolate assessed as antibacterial activity after 16 hrs by agar dilution method
Staphylococcus aureus [11] = assay: Inhibition of FabB/FabF in methicillin-resistant Staphylococcus aureus 3196 clinical isolate assessed as antibacterial activity after 16 hrs by agar dilution method
Staphylococcus aureus [12] = assay: Inhibition of FabB/FabF in methicillin-resistant Staphylococcus aureus 3116 clinical isolate assessed as antibacterial activity after 16 hrs by agar dilution method
Staphylococcus aureus [13] = assay: Inhibition of FabB/FabF in methicillin-resistant Staphylococcus aureus 3103 clinical isolate assessed as antibacterial activity after 16 hrs by agar dilution method
Staphylococcus aureus [14] = assay: Inhibition of FabB/FabF in Staphylococcus aureus ATCC 29213 assessed as antibacterial activity after 16 hrs by agar dilution method
Staphylococcus aureus [15] = assay: Inhibition of FabB/FabF in methicillin-resistant Staphylococcus aureus 3105 clinical isolate assessed as antibacterial activity after 16 hrs by agar dilution method
Staphylococcus aureus [16] = assay: Inhibition of FabB/FabF in methicillin-sensitive Staphylococcus aureus 2954 clinical isolate assessed as antibacterial activity after 16 hrs by agar dilution method
Staphylococcus aureus [17] = assay: Inhibition of FabB/FabF in methicillin-resistant Staphylococcus aureus 2962 clinical isolate assessed as antibacterial activity after 16 hrs by agar dilution method
Staphylococcus aureus [18] = assay: Inhibition of FabB/FabF in methicillin-resistant Staphylococcus aureus 3065 clinical isolate assessed as antibacterial activity after 16 hrs by agar dilution method
Staphylococcus aureus [19] = assay: Inhibition of FabB/FabF in methicillin-resistant Staphylococcus aureus 2968 clinical isolate assessed as antibacterial activity after 16 hrs by agar dilution method
Staphylococcus aureus [20] = assay: Inhibition of FabB/FabF in methicillin-sensitive Staphylococcus aureus 2956 clinical isolate assessed as antibacterial activity after 16 hrs by agar dilution method
Staphylococcus aureus [21] = assay: Inhibition of FabB/FabF in methicillin-sensitive Staphylococcus aureus 2952 clinical isolate assessed as antibacterial activity after 16 hrs by agar dilution method
Staphylococcus aureus [22] = assay: Inhibition of FabB/FabF in methicillin-resistant Staphylococcus aureus 3086 clinical isolate assessed as antibacterial activity after 16 hrs by agar dilution method
Staphylococcus aureus [23] = assay: Inhibition of FabB/FabF in methicillin-resistant Staphylococcus aureus 3140 clinical isolate assessed as antibacterial activity after 16 hrs by agar dilution method
Staphylococcus aureus [24] = assay: Inhibition of FabB/FabF in methicillin-resistant Staphylococcus aureus 3097 clinical isolate assessed as antibacterial activity after 16 hrs by agar dilution method
Staphylococcus aureus [25] = assay: Inhibition of FabB/FabF in methicillin-resistant Staphylococcus aureus 3163 clinical isolate assessed as antibacterial activity after 16 hrs by agar dilution method
Staphylococcus aureus [26] = assay: Inhibition of FabB/FabF in methicillin-resistant Staphylococcus aureus 3161 clinical isolate assessed as antibacterial activity after 16 hrs by agar dilution method
Staphylococcus aureus [27] = assay: Inhibition of FabB/FabF in methicillin-resistant Staphylococcus aureus 3181 clinical isolate assessed as antibacterial activity after 16 hrs by agar dilution method
Staphylococcus aureus [28] = assay: Inhibition of FabB/FabF in methicillin-resistant Staphylococcus aureus 2978 clinical isolate assessed as antibacterial activity after 16 hrs by agar dilution method
Staphylococcus aureus [29] = assay: Inhibition of FabB/FabF in methicillin-resistant Staphylococcus aureus 2957 clinical isolate assessed as antibacterial activity after 16 hrs by agar dilution method
Staphylococcus aureus [30] = assay: Inhibition of FabB/FabF in methicillin-resistant Staphylococcus aureus 2959 clinical isolate assessed as antibacterial activity after 16 hrs by agar dilution method
Staphylococcus aureus [31] = assay: Inhibition of FabB/FabF in methicillin-resistant Staphylococcus aureus 2953 clinical isolate assessed as antibacterial activity after 16 hrs by agar dilution method
Staphylococcus aureus [32] = assay: Inhibition of FabB/FabF in methicillin-resistant Staphylococcus aureus 3100 clinical isolate assessed as antibacterial activity after 16 hrs by agar dilution method
Staphylococcus aureus [33] = assay: Inhibition of FabB/FabF in methicillin-resistant Staphylococcus aureus 3110 clinical isolate assessed as antibacterial activity after 16 hrs by agar dilution method
Staphylococcus aureus [34] = assay: Inhibition of FabB/FabF in methicillin-resistant Staphylococcus aureus 2984 clinical isolate assessed as antibacterial activity after 16 hrs by agar dilution method
Staphylococcus aureus [35] = assay: Inhibition of FabB/FabF in methicillin-resistant Staphylococcus aureus 3182 clinical isolate assessed as antibacterial activity after 16 hrs by agar dilution method
Staphylococcus aureus [36] = assay: Inhibition of FabB/FabF in methicillin-resistant Staphylococcus aureus 2985 clinical isolate assessed as antibacterial activity after 16 hrs by agar dilution method
Staphylococcus aureus [37] = assay: Inhibition of FabB/FabF in methicillin-resistant Staphylococcus aureus assessed as antibacterial activity after 16 hrs by agar dilution method
Staphylococcus aureus [38] = assay: Inhibition of FabB/FabF in methicillin-resistant Staphylococcus aureus 2976 clinical isolate assessed as antibacterial activity after 16 hrs by agar dilution method
Staphylococcus aureus [39] = assay: Inhibition of FabB/FabF in methicillin-resistant Staphylococcus aureus 2951 clinical isolate assessed as antibacterial activity after 16 hrs by agar dilution method
Staphylococcus aureus [40] = assay: Inhibition of FabB/FabF in methicillin-resistant Staphylococcus aureus 3074 clinical isolate assessed as antibacterial activity after 16 hrs by agar dilution method
Staphylococcus aureus [41] = assay: Inhibition of FabB/FabF in methicillin-resistant Staphylococcus aureus 3082 clinical isolate assessed as antibacterial activity after 16 hrs by agar dilution method

SMILES: C[C@]12C[C@@]34C=C(SC5CCCCC5)C(=O)[C@@](C)(CCC(=O)Nc5c(O)ccc(C(=O)O)c5O)[C@@H]3[C@H](C[C@@H]1C4)O2
- inhibition (Staphylococcus aureus [1]): Active
- inhibition (Staphylococcus aureus [2]): Active
- inhibition (Staphylococcus aureus [3]): Active
- MIC (Staphylococcus aureus [4]): 0.25 µg/mL (≈ 0.45 µM)
- inhibition (Staphylococcus aureus [5]): Active
- survival at 10 mg/kg (Staphylococcus aureus [6]): > 60%
- inhibition (Staphylococcus aureus [7]): Active
- inhibition (Staphylococcus aureus [8]): Active
- inhibition (Staphylococcus aureus [9]): Active
- inhibition (Staphylococcus aureus [10]): Active
- inhibition (Staphylococcus aureus [11]): Active
- inhibition (Staphylococcus aureus [12]): Active
- inhibition (Staphylococcus aureus [13]): Active
- MIC (Staphylococcus aureus [14]): 0.5 µg/mL (≈ 0.9 µM)
- inhibition (Staphylococcus aureus [15]): Active
- inhibition (Staphylococcus aureus [16]): Active
- inhibition (Staphylococcus aureus [17]): Active
- inhibition (Staphylococcus aureus [18]): Active
- inhibition (Staphylococcus aureus [19]): Active
- inhibition (Staphylococcus aureus [20]): Active
- inhibition (Staphylococcus aureus [21]): Active
- inhibition (Staphylococcus aureus [22]): Active
- inhibition (Staphylococcus aureus [23]): Active
- inhibition (Staphylococcus aureus [24]): Active
- inhibition (Staphylococcus aureus [25]): Active
- inhibition (Staphylococcus aureus [26]): Active
- inhibition (Staphylococcus aureus [27]): Active
- inhibition (Staphylococcus aureus [28]): Active
- inhibition (Staphylococcus aureus [29]): Active
- inhibition (Staphylococcus aureus [30]): Active
- inhibition (Staphylococcus aureus [31]): Active
- inhibition (Staphylococcus aureus [32]): Active
- inhibition (Staphylococcus aureus [33]): Active
- inhibition (Staphylococcus aureus [34]): Active
- inhibition (Staphylococcus aureus [35]): Active
- inhibition (Staphylococcus aureus [36]): Active
- MIC (Staphylococcus aureus [37]): 0.25 µg/mL (≈ 0.45 µM)
- inhibition (Staphylococcus aureus [38]): Active
- inhibition (Staphylococcus aureus [39]): Active
- inhibition (Staphylococcus aureus [40]): Active
- inhibition (Staphylococcus aureus [41]): Active

SMILES: C[C@]12C[C@@]34C=CC(=O)[C@@](C)(CCC(=O)Nc5c(O)ccc(C(=O)O)c5O)[C@@H]3[C@H](C[C@@H]1C4)O2
- MIC (Staphylococcus aureus [1]): 1 µg/mL (≈ 2.27 µM)
- MIC (Staphylococcus aureus [2]): 1 µg/mL (≈ 2.27 µM)
- MIC (Staphylococcus aureus [3]): 1 µg/mL (≈ 2.27 µM)
- MIC (Staphylococcus aureus [4]): 0.5 µg/mL (≈ 1.13 µM)
- MIC (Staphylococcus aureus [5]): 1 µg/mL (≈ 2.27 µM)
- Survival (Staphylococcus aureus [6]): inactive
- MIC (Staphylococcus aureus [7]): 1 µg/mL (≈ 2.27 µM)
- MIC (Staphylococcus aureus [8]): 1 µg/mL (≈ 2.27 µM)
- MIC (Staphylococcus aureus [9]): 1 µg/mL (≈ 2.27 µM)
- MIC (Staphylococcus aureus [10]): 1 µg/mL (≈ 2.27 µM)
- MIC (Staphylococcus aureus [11]): 1 µg/mL (≈ 2.27 µM)
- MIC (Staphylococcus aureus [12]): 1 µg/mL (≈ 2.27 µM)
- MIC (Staphylococcus aureus [13]): 1 µg/mL (≈ 2.27 µM)
- MIC (Staphylococcus aureus [14]): 1 µg/mL (≈ 2.27 µM)
- MIC (Staphylococcus aureus [15]): 1 µg/mL (≈ 2.27 µM)
- MIC (Staphylococcus aureus [16]): 1 µg/mL (≈ 2.27 µM)
- MIC (Staphylococcus aureus [17]): 1 µg/mL (≈ 2.27 µM)
- MIC (Staphylococcus aureus [18]): 1 µg/mL (≈ 2.27 µM)
- MIC (Staphylococcus aureus [19]): 1 µg/mL (≈ 2.27 µM)
- MIC (Staphylococcus aureus [20]): 1 µg/mL (≈ 2.27 µM)
- MIC (Staphylococcus aureus [21]): 1 µg/mL (≈ 2.27 µM)
- MIC (Staphylococcus aureus [22]): 1 µg/mL (≈ 2.27 µM)
- MIC (Staphylococcus aureus [23]): 1 µg/mL (≈ 2.27 µM)
- MIC (Staphylococcus aureus [24]): 1 µg/mL (≈ 2.27 µM)
- MIC (Staphylococcus aureus [25]): 1 µg/mL (≈ 2.27 µM)
- MIC (Staphylococcus aureus [26]): 1 µg/mL (≈ 2.27 µM)
- MIC (Staphylococcus aureus [27]): 1 µg/mL (≈ 2.27 µM)
- MIC (Staphylococcus aureus [28]): 1 µg/mL (≈ 2.27 µM)
- MIC (Staphylococcus aureus [29]): 1 µg/mL (≈ 2.27 µM)
- MIC (Staphylococcus aureus [30]): 1 µg/mL (≈ 2.27 µM)
- MIC (Staphylococcus aureus [31]): 1 µg/mL (≈ 2.27 µM)
- MIC (Staphylococcus aureus [32]): 1 µg/mL (≈ 2.27 µM)
- MIC (Staphylococcus aureus [33]): 1 µg/mL (≈ 2.27 µM)
- MIC (Staphylococcus aureus [34]): 1 µg/mL (≈ 2.27 µM)
- MIC (Staphylococcus aureus [35]): 1 µg/mL (≈ 2.27 µM)
- MIC (Staphylococcus aureus [36]): 1 µg/mL (≈ 2.27 µM)
- MIC (Staphylococcus aureus [37]): 0.5 µg/mL (≈ 1.13 µM)
- MIC (Staphylococcus aureus [38]): 1 µg/mL (≈ 2.27 µM)
- MIC (Staphylococcus aureus [39]): 1 µg/mL (≈ 2.27 µM)
- MIC (Staphylococcus aureus [40]): 1 µg/mL (≈ 2.27 µM)
- MIC (Staphylococcus aureus [41]): 1 µg/mL (≈ 2.27 µM)
